US12102685B2, “Immodulator peptides covalently modified with small molecules” (priority 2020, dated 2024)
Marks after values point to notes of the source that are not given here. Peptide text beside a SMILES is read from it.

Columns and labels:
[1] = tested on: COL1 in HFF-1 dermal fibroblasts; assay: Collagen-1 ELISA in HFF-1 dermal fibroblasts (x11A); type: cell-based; details: peptide 2 uM, 72 hour; control (buffer) = 100
Method: Immune modulation functions of immodulator peptides have potential untility in the field of cosmetics. HFF-1 cell line was obtained from American Type Culture Collection (ATCC). Cells were grown in a T-75 flask in DMEM Medium containing 10% fetal bovine serum and penicillin-streptomycin at 37° C. in a humidified, 5% CO2 incubator. Cells ([…], 2,000 cells/well) were plated in a 96-well plate and incubated overnight at 37° C. in a humidified, 5% CO2 incubator. Next day, […] of compounds were added (quadruplicate wells). After 72 hour incubation with the compound, supernatants were collected for Collagen-1 ELISA assay and cell viability was measured in a luminometer after the addition of […] CellTiterGlo reagent (Promega Inc, Madison, WI) as recommended by the manufacturer.
Collagen stimulating activity of immodulator peptides in HFF-1 dermal fibroblasts. Peptides were added to cells at 2 uM. COL1 immunoreactivity was measured in the supernatants of cultured cells by ELISA using a rabbit monoclonal anti-COL1 primary antibody (Abcam, Cambridge, MA). Control (buffer) value of immunoreactivity was set to 100.

[2] = Competition binding assay to metal-charged NTA-coated plates (x2B b); details: PBS on calcium = 100
Method: NTA-metal-affinity fluorescence assay was performed using 96-well NTA-metal-coated plates readily available from commercial sources such as Qiagen (Germantown, MD). NTA was charged with ferrous or ferric iron, zinc, copper, calcium, vanadium, ruthenium, cobalt, titanium, manganese or other metals. 400 ng of FITC-labeled immodulator peptide (or biotinylated immodulator peptide complexed to Alexa-488-labeled streptavidin) in PBS buffer was added per plate. After incubation at room temperature for 60 minutes, excess peptide was washed off and peptide was detected by measuring fluorescence (excitation 490 nm, emmission 525 nm) in a fluorometer. • (a) Using FITC-labeled IM3 peptide (1 ug/well) in the fluorescent binding assay: • EDTA-treated control: 2,251±1,186 • Ferrous iron: 170,441±11,264 (p<0.001)* • Copper: 13,644±5566 (p<0.05)* • Calcium: 48,822±11,990 (p<0.01)* • *p values are relative to EDTA-treated control • (b) Competition binding assay to ferrous iron, calcium, copper and zinc-charged NTA-coated plates using FITC-labeled IM3 peptide (0.5 uM) and 8× (4 uM) unlabelled competitor peptides IM3N1, IM3N2 (*all comparisons to PBS control are p<0.01); # fluorescent value of binding to […] was set at 100.

[3] = biological target: T1, DNA-binding domain (DBD) of RXR-alpha (Homo sapiens, UniProt P19793); assay: Binding to RXRa-DBD with or without ferric iron (x3B)
T1 construct: purchased Abcam, Cambridge, MA
T1 sequence (P19793 111-228): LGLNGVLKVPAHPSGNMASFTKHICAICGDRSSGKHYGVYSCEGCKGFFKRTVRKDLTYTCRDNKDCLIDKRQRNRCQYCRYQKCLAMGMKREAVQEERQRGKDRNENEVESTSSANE
Method: Experiment x3B. Binding of immodulator peptides to DNA-binding domain (DBD) of RXR-alpha, with or without ferric iron. 100 ng/well recombinant RXRa-DBD (Abcam, Cambridge, MA) was adsorbed to wells of a 96-well plate for 60 minutes at RT, then blocked with 200 uL 1% BSA in PBS buffer overnight. Plate was washed and 800 ng/well Streptavidin-Alexa 488 conjugate (SA488)-labelled IM peptide was added, with or without ferric chloride (5 uM) or 5-fold excess RXRa-DBD. The plate was incubated for 2 hours at room temperature, washed and counted in a standard fluorometer (excitation/emission 485/525 nm).

[4] = FITC-PI(4,5)P2 binding at pH5.2 with metals and cold PPI (x9D)
Method: To a streptavidin-coated 96-well plate, 400 ng peptide IM3 or IM5 were bound per well. Each well received 100 uL of sodium acetate buffer pH5.2 containing 500 uM EDTA, Calcium Chloride, Zinc Chloride or Ferric Chloride. Each well additionally contained 50 ng FITC-PI(4,5)P2 plus 2 ug of either cold PI(3,4)P2, PI(4,5)P2, PI(3,5)P2 or buffer. All assays were done in sextuplicate. After incubation at room temperature for 60 mins, wells were washed and counted in a fluorometer set at FITC excitation/emmission wavelengths.

full-length huNur77 = biological target: T2, full-length huNur77 (Homo sapiens, UniProt P22736); assay: Binding to full-length huNur77 (x3C); details: 333 ng/well labelled peptide
T2 construct: purchased Abcam, Cambridge, MA
Method: 400 ng/well recombinant Nur77 (Abcam, Cambridge, MA) was adsorbed to wells of a 96-well plate for 90 minutes at RT, then blocked with 200 uL 1% BSA in PBS buffer overnight. Plate was washed and 333 ng/well Streptavidin-Alexa 488 conjugate (SA488)-labelled IM3, IM4 or no peptide was added. The plate was incubated for 60 min at room temperature, washed and counted in a standard fluorometer (excitation/emission 485/525 nm). Background (buffer alone) was subtracted.

T2 sequence (P22736 whole entry): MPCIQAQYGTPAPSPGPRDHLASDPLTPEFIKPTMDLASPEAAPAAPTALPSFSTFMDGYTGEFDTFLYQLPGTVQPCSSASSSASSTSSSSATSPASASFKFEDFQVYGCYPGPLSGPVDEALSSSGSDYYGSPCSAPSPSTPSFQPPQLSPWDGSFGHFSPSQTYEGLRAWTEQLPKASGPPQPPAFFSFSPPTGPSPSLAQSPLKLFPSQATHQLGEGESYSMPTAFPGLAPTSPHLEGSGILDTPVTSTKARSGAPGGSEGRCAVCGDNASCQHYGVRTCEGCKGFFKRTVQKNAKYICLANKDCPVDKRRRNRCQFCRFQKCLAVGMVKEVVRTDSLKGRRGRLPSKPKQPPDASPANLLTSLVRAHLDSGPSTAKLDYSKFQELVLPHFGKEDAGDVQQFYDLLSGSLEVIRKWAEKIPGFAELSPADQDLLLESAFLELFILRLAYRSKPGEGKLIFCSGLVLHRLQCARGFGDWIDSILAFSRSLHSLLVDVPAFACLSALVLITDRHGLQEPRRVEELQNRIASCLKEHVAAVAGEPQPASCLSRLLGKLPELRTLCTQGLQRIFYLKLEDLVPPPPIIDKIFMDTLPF

In the case of `CSCC[C@H](NC(=O)[C@H](CO)NC(=O)[C@@H](NC(=O)[C@H](CCC(=O)O)NC(=O)[C@H](CS)NC(=O)[C@H](CCC(N)=O)NC(=O)[C@H](CCCNC(=N)N)NC(=O)[C@H](CO)NC(=O)[C@H](Cc1c[nH]cn1)NC(=O)[C@H](Cc1ccc(O)cc1)NC(=O)[C@H](Cc1ccccc1)NC(=O)CNC(=O)[C@H](CC(N)=O)NC(=O)[C@@H](N)CCCCN)[C@@H](C)O)C(=O)N[C@@H](CC(=O)O)C(=O)NCC(=O)N[C@@H](CCC(=O)O)C(=O)N[C@@H](C)C(=O)NCC(=O)N[C@@H](CC(C)C)C(=O)N[C@@H](CS)C(=O)N[C@@H](Cc1c[nH]c2ccccc12)C(=O)O` [IM1] (H-KNGFYHSRQCETSMDGEAGLCW-OH; N-terminus and C-terminus assumed), the “COL1 immunoreactivity in supernatant” value [1] is reported as 98.

For “RGVTEDYLRLETLVQKVVSKGFYKKKQCRPSKGRKRGFCW [IM3N1]”, the “FITC-IM3 fluorescence with competitor” value ([2]; Calcium, 0.5 uM FITC-IM3, 8x (4 uM) unlabelled competitor) was 14.6 ± 1.4*, the “FITC-IM3 fluorescence with competitor” value ([2]; Copper, 8x (4 uM) unlabelled competitor) was 9.2 ± 1.5* and the “FITC-IM3 fluorescence with competitor” value ([2]; Ferrous iron, 8x (4 uM) unlabelled competitor) was 20.4 ± 1.0*. The “FITC-IM3 fluorescence with competitor” value ([2]; Zinc, 8x (4 uM) unlabelled competitor) was 15.7 ± 1.3*.

In the case of `CC[C@H](C)[C@H](NC(=O)CNC(=O)[C@H](CCCNC(=N)N)NC(=O)[C@H](CCCCN)NC(=O)[C@H](CCCNC(=N)N)NC(=O)CNC(=O)[C@H](CCCNC(=N)N)NC(=O)[C@H](CO)NC(=O)[C@@H]1CCCN1C(=O)[C@H](CCCCN)NC(=O)[C@H](CS)NC(=O)[C@H](CCC(N)=O)NC(=O)[C@H](CCCCN)NC(=O)[C@H](CCCNC(=N)N)NC(=O)[C@H](CCCCN)NC(=O)[C@H](Cc1ccc(O)cc1)NC(=O)[C@H](Cc1ccccc1)NC(=O)CNC(=O)[C@H](CCCCN)NC(=O)[C@@H](N)CCCNC(=N)N)C(=O)N[C@@H](CS)C(=O)N[C@@H](Cc1c[nH]c2ccccc12)C(=O)O` [IM5] (H-RKGFYKRKQCKPSRGRKRGICW-OH; N-terminus and C-terminus assumed), the fluorescence ([3]; 100 ng/well RXRa-DBD, no FeCl3, no excess RXRa-DBD) is reported as 228.0 ± 44.9, the fluorescence ([3]; FeCl3 5 uM, 5X excess RXRa-DBD) is reported as 303.0 ± 68.3 and the fluorescence ([3]; FeCl3 5 uM, no excess RXRa-DBD) is reported as 552.7 ± 86.8^. For the same compound, the “COL1 immunoreactivity in supernatant” value [1] was 93, the “fluorescence, FITC-PI(4,5)P2 bound” value ([4]; Buffer, Calcium) was 234 ± 34 and the “fluorescence, FITC-PI(4,5)P2 bound” value ([4]; Buffer, EDTA) was 88 ± 23. For the same compound, the “fluorescence, FITC-PI(4,5)P2 bound” value ([4]; Buffer, Ferric Iron) was 1,111 ± 167, the “fluorescence, FITC-PI(4,5)P2 bound” value ([4]; Buffer, Zinc) was 236 ± 55 and the “fluorescence, FITC-PI(4,5)P2 bound” value ([4]; Cold PI(3,4)P2, Calcium) was 205 ± 50. For the same compound, the “fluorescence, FITC-PI(4,5)P2 bound” value ([4]; Cold PI(3,4)P2, EDTA) was 150 ± 81, the “fluorescence, FITC-PI(4,5)P2 bound” value ([4]; Cold PI(3,4)P2, Ferric Iron) was 2,150 ± 420 and the “fluorescence, FITC-PI(4,5)P2 bound” value ([4]; Cold PI(3,4)P2, Zinc) was 151 ± 51. The “fluorescence, FITC-PI(4,5)P2 bound” value ([4]; Cold PI(3,5)P2, Calcium) was 489 ± 146, the “fluorescence, FITC-PI(4,5)P2 bound” value ([4]; Cold PI(3,5)P2, EDTA) was 205 ± 71 and the “fluorescence, FITC-PI(4,5)P2 bound” value ([4]; Cold PI(3,5)P2, Ferric Iron) was 2,026 ± 176. For the same compound, the “fluorescence, FITC-PI(4,5)P2 bound” value ([4]; Cold PI(3,5)P2, Zinc) was 353 ± 29, the “fluorescence, FITC-PI(4,5)P2 bound” value ([4]; Cold PI(4,5)P2, Calcium) was 163 ± 80 and the “fluorescence, FITC-PI(4,5)P2 bound” value ([4]; Cold PI(4,5)P2, EDTA) was 81 ± 95. For the same compound, the “fluorescence, FITC-PI(4,5)P2 bound” value ([4]; Cold PI(4,5)P2, Ferric Iron) was 1,447 ± 304 and the “fluorescence, FITC-PI(4,5)P2 bound” value ([4]; Cold PI(4,5)P2, Zinc) was 104 ± 21.

With `CC(C)C[C@H](NC(=O)[C@H](C)NC(=O)[C@@H]1CCCN1C(=O)[C@H](Cc1c[nH]cn1)NC(=O)[C@H](CS)NC(=O)[C@H](CCC(N)=O)NC(=O)[C@H](CCCCN)NC(=O)[C@@H]1CCCN1C(=O)[C@H](Cc1c[nH]cn1)NC(=O)[C@H](Cc1ccccc1)NC(=O)[C@H](CC(N)=O)NC(=O)CNC(=O)[C@H](CC(N)=O)NC(=O)[C@@H](N)CCCNC(=N)N)C(=O)N[C@@H](CC(=O)O)C(=O)NCC(=O)N[C@@H](CCC(N)=O)C(=O)N[C@@H](CCCNC(=N)N)C(=O)NCC(=O)N[C@@H](CCCCN)C(=O)N[C@@H](CS)C(=O)N[C@@H](Cc1c[nH]c2ccccc12)C(=O)O` [IM4] (H-RNGNFHPKQCHPALDGQRGKCW-OH; N-terminus and C-terminus assumed) the “COL1 immunoreactivity in supernatant” value [1] was 105, the fluorescence (full-length huNur77; Nur77 400 ng/well) was 70 ± 48 and the fluorescence (full-length huNur77; no Nur77 adsorbed) was 112 ± 24.

In the case of `CSCC[C@H](NC(=O)[C@H](CCCCN)NC(=O)[C@H](CS)NC(=O)[C@H](CCC(N)=O)NC(=O)[C@H](CCCCN)NC(=O)[C@H](CC(C)C)NC(=O)[C@H](CC(N)=O)NC(=O)[C@H](Cc1ccc(O)cc1)NC(=O)[C@H](CC(C)C)NC(=O)CNC(=O)[C@H](Cc1c[nH]cn1)NC(=O)[C@@H](N)CCCCN)C(=O)N[C@@H](CO)C(=O)N[C@@H](CC(C)C)C(=O)N[C@@H](CC(N)=O)C(=O)NCC(=O)N[C@@H](CCC(N)=O)C(=O)N[C@@H](CCCNC(=N)N)C(=O)NCC(=O)N[C@@H](CCC(=O)O)C(=O)N[C@@H](CS)C(=O)N[C@@H](Cc1c[nH]c2ccccc12)C(=O)O` [IM2], the “COL1 immunoreactivity in supernatant” value [1] is reported as 109.
